Reference: US20230365533A1, “BICYCLOHEPTANE PYRROLIDINE OREXIN RECEPTOR AGONISTS” (MERCK SHARP & DOHME CORP., priority 2021, published 2023)

Target: T1, human OX2R (Homo sapiens, UniProt O43614)
T1 construct: expressed in transfected cells; host or cells: CHO (Chinese hamster ovary) cells, grown under G418 selection
T1 sequence (O43614 1-444): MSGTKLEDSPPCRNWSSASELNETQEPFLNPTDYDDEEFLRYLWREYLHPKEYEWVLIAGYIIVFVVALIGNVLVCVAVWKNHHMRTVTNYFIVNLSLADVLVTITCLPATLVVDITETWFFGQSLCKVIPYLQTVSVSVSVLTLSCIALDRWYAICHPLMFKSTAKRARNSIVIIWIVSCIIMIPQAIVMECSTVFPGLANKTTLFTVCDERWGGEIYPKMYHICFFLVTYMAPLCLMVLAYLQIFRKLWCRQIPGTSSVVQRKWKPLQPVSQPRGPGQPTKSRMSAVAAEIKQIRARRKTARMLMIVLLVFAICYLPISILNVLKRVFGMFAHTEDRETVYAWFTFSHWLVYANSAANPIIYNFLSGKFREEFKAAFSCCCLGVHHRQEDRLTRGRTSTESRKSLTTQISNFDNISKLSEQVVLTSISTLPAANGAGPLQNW
Assay: IPOne (IP-1) orexin receptor agonist assay in CHO cells expressing human OX2R
Format: cell-based
Details: CHO, percent of mean max effect of a reference compound at 1 uM with 100% activity vs Orexin A, human OX2R
Source text: The utility of the compounds in accordance with the present invention as orexin receptor OX1R and/or OX2R agonists may be readily determined without undue experimentation by methodology well known in the art. Both the OX1R and/or OX2R G-coupled protein receptors (GPCRs) couple through the Gaq signaling pathway, which ultimately promotes calcium mobilization via inositol triphosphate (IP3) production. The half-life of IP-3 is relatively short, being rapidly metabolized to inositol monophosphate (IP-1), which can be readily detected using a commercially available assay kit (IP-One; Cisbio; cat #621PAPEC) coupled with a cell line expressing the target receptor(s) of interest. The utility of the compounds in accordance with the present invention as orexin receptor OX1R and/or OX2R agonists may be determined utilizing this assay.
In a typical experiment, the OX1 and OX2 receptor agonist activity is determined in accordance with the following general experimental method. Chinese hamster ovary (CHO) cells expressing human OX1R and/or the human OX2R were grown in Iscove's modified DMEM containing glutaMAX™, 1% G418, 100 U/mL penicillin, 100 μg/mL streptomycin and 10% heat-inactivated qualified fetal bovine serum (FBS). The OX2R cells were seeded at 10,000 cells/well/50 μL and the OX1R cells were seeded at 20,000 cells/well/50 μL into 384-well white tissue culture plates (Greiner; cat #781080). All cell/media reagents were from GIBCO-Invitrogen Corp. The seeded cell plate(s) were incubated at 37° C. with 5% CO2 and 85% humidity for 20-24 hours. On the day of the assay, assay-ready compound plates were prepared using an acoustic liquid handler (ECHO; Labcyte), which dispensed sufficient volume of test compound stock (10 mM in DMSO) or 100% DMSO to prepare 10 point, ½-log dilutions in a final volume of 202.5 nL/well in all test wells of a 384-well diamond plate (Labcyte). Following completion of assay-ready plates, importantly, the next three steps were performed with minimal delay: 1) 20 μl of 1×stimulation buffer was added to the compound plate using a Multidrop Combi (small cassette, Thermo Fisher Scientific cat #24073290); 2) culture medium was removed from the cell plate using the Bluewasher plate washer (gentle spin; BlueCatBio); 3) 14 μl of compound/stimulation buffer mixture was added to the cell plate using a Bravo liquid handler (Agilent) prior to incubating cell plates at 37° C. with 5% CO2 and 85% humidity for 1 or 2 hours (OX1R and OX2R, respectively). During this incubation, IP-one detection reagents were prepared (38:1:1 lysis buffer:D2:AB-cryptate reagents). Six μL of mixed detection reagents were added to the cell plate using a Multidrop Combi (small cassette, Thermo Fisher Scientific cat #24073290) and incubated 60 minutes at room temperature in the dark. Fluorescence signal was detected using an Envision plate reader (Perkin Elmer) [LANCE/DELFIA Dual Enh (Em: APC 665; Ex: Cy5 620)].
For each compound, data were fit to a four parameter logistic fit (ActivityBase software) and the EC50 was reported as the inflection point of the resulting curve. Percent effect for each test compound was determined as the percentage of sample raw value/mean max effect, where the mean max effect was derived from the mean raw value of 32 control wells per assay plate (using Orexin A (cat #003-30) at 1 μM for human OX1R and a reference compound at 1 uM with 100% activity previously established by comparison to Orexin A for human OX2R). The intrinsic orexin receptor agonist activity of a compound which may be used in the present invention may be determined by these assays.

With `COC(=O)N1[C@H](C)C[C@H](NS(=O)(=O)N(C)C)[C@@H]1COC1CCC2(c3ncc(F)cn3)CC2C1` (single isomer, unassigned) [Example 167] as the compound, how does the Emax read?
The Emax was 74.4%.

Same assay, conditions: IPOne assay, CHO cells expressing human OX2R, 2 hours incubation; read-out: hoX2R_IP IC50

How did the IC50 turn out when `COC(=O)N1[C@H](C)C[C@H](NS(C)(=O)=O)[C@@H]1CO[C@H]1CC[C@@]2(c3ncc(F)cn3)C[C@H]2C1` (single isomer, unassigned) [Example 137] was run?
Its IC50 is 1.4 nM.

With `COC(=O)N1[C@H](C)C[C@H](NS(C)(=O)=O)[C@@H]1COC1CCC2(c3ncc(C)cn3)CC2C1` (stereo partly drawn) [Example 159, methyl (2R,3S,5R)-5-methyl-2-(((6-(5-methylpyrimidin-2-yl)bicyclo[4.1.0]heptan-3-yl)oxy)methyl)-3-(methylsulfonamido)pyrrolidine-1-carboxylate] as the compound, how does the IC50 read?
The IC50 was 79.4 nM.

How did the IC50 turn out when `CC(C)OC(=O)N1[C@H](C)C[C@H](NS(C)(=O)=O)[C@@H]1CO[C@@H]1CC[C@]2(c3ncc(F)cn3)C[C@@H]2C1` (single isomer, unassigned) [Example 29] was run?
Its IC50 is 8 nM.

For `CC(C)OC(=O)N1[C@H](C)C[C@H](NS(=O)(=O)CF)[C@@H]1COC1CCC2(c3ncc(Cl)cn3)CC2C1` (stereo partly drawn) [Example 107, isopropyl (2R,3S,5R)-2-(((6-(5-chloropyrimidin-2-yl)bicyclo[4.1.0]heptan-3-yl)oxy)methyl)-3-((fluoromethyl)sulfonamido)-5-methylpyrrolidine-1-carboxylate], which IC50 is on record?
The IC50 was 4.5 nM.

With `COC(=O)N1[C@@H]2COC[C@@H]2C(NS(C)(=O)=O)[C@@H]1COC1CCC2(c3ncc(F)cn3)CC2C1` (mixture of isomers) [Example 134, methyl (2R,3aS,6aS)-2-(((6-(5-fluoropyrimidin-2-yl)bicyclo[4.1.0]heptan-3-yl)oxy)methyl)-3-(methylsulfonamido)hexahydro-1H-furo[3,4-b]pyrrole-1-carboxylate] as the compound, how does the IC50 read?
Its IC50 is 83.7 nM.

With `COC(=O)N1[C@H](C)C[C@H](NS(=O)(=O)CF)[C@@H]1COC1CCC2(c3ncc(F)c(OC)n3)CC2C1` (stereo partly drawn) [Example 85, methyl (2R,3S,5R)-2-(((6-(5-fluoro-4-methoxypyrimidin-2-yl)bicyclo[4.1.0]heptan-3-yl)oxy)methyl)-3-((fluoromethyl)sulfonamido)-5-methylpyrrolidine-1-carboxylate] as the compound, how does the IC50 read?
The IC50 was 25.2 nM.

For `COC(=O)N1[C@H](C)C[C@H](NS(=O)(=O)N(C)C)[C@@H]1COC1CCC2(c3cnccn3)CC2C1` (stereo partly drawn) [Example 10, methyl (2R,3S,5R)-3-((N,N-dimethylsulfamoyl)amino)-5-methyl-2-(((6-(pyrazin-2-yl)bicyclo[4.1.0]heptan-3-yl)oxy)methyl)pyrrolidine-1-carboxylate], which IC50 is on record?
Its IC50 is 323 nM.

For `CC(C)OC(=O)N1[C@H](C)C[C@H](NS(=O)(=O)N(C)C)[C@@H]1CO[C@H]1CC[C@@]2(c3ncccn3)C[C@H]2C1` (single isomer, unassigned) [Example 171], which IC50 is on record?
The IC50 was 2.3 nM.

`COC(=O)N1[C@H](C)C[C@H](NS(=O)(=O)N2CCC2)[C@@H]1CO[C@H]1CC[C@@]2(c3ncc(F)cn3)C[C@H]2C1` [Example 39, methyl (2R,3S,5R)-3-(azetidine-1-sulfonamido)-2-((((1S,3S,6R)-6-(5-fluoropyrimidin-2-yl)bicyclo[4.1.0]heptan-3-yl)oxy)methyl)-5-methylpyrrolidine-1-carboxylate] was tested. Which IC50 did it give?
Its IC50 is 2 nM.

For `COC(=O)N1[C@H](C(F)F)C[C@H](NS(=O)(=O)C2CC2)[C@@H]1COC1CCC2(c3ncc(F)cn3)CC2C1` (stereo partly drawn) [Example 116, methyl (2R,3S,5S)-3-(cyclopropanesulfonamido)-5-(difluoromethyl)-2-(((6-(5-fluoropyrimidin-2-yl)bicyclo[4.1.0]heptan-3-yl)oxy)methyl)pyrrolidine-1-carboxylate], which IC50 is on record?
The IC50 was 2.3 nM.

`C[C@@H]1C[C@H](NS(C)(=O)=O)[C@H](CO[C@H]2CC[C@@]3(c4ncc(F)cn4)C[C@H]3C2)N1C(=O)OCCF` [Example 62, 2-Fluoroethyl (2R,3S,5R)-2-((((1S,3S,6R)-6-(5-fluoropyrimidin-2-yl)bicyclo[4.1.0]heptan-3-yl)oxy)methyl)-5-methyl-3-(methylsulfonamido)pyrrolidine-1-carboxylate] was tested. Which IC50 did it give?
The IC50 was 1.7 nM.

`CCS(=O)(=O)N[C@H]1C[C@@H](C)N(C(=O)OC)[C@H]1CO[C@H]1CC[C@@]2(c3ncc(F)cn3)C[C@H]2C1` [Example 36, methyl (2R,3S,5R)-3-(ethylsulfonamido)-2-((((1S,3S,6R)-6-(5-fluoropyrimidin-2-yl)bicyclo[4.1.0]heptan-3-yl)oxy)methyl)-5-methylpyrrolidine-1-carboxylate] was tested. Which IC50 did it give?
The IC50 was 0.93 nM.

With `COC(=O)N1[C@H](C)C[C@H](NS(=O)(=O)C(F)F)[C@@H]1CO[C@H]1CC[C@@]2(c3ncc(F)cn3)C[C@H]2C1` [Example 48, methyl (2R,3S,5R)-3-((difluoromethyl)sulfonamido)-2-((((1S,3S,6R)-6-(5-fluoropyrimidin-2-yl)bicyclo[4.1.0]heptan-3-yl)oxy)methyl)-5-methylpyrrolidine-1-carboxylate] as the compound, how does the IC50 read?
Its IC50 is 1.4 nM.

How did the IC50 turn out when `COC(=O)N1[C@H](C(F)F)C[C@H](NS(=O)(=O)C(C)C)[C@@H]1COC1CCC2(c3ncc(F)cn3)CC2C1` (stereo partly drawn) [Example 120, methyl (2R,3S,5S)-5-(difluoromethyl)-2-(((6-(5-fluoropyrimidin-2-yl)bicyclo[4.1.0]heptan-3-yl)oxy)methyl)-3-((1-methylethyl)sulfonamido)pyrrolidine-1-carboxylate] was run?
Its IC50 is 2.4 nM.

For `COC(=O)N1[C@H](C)C[C@H](NS(C)(=O)=O)[C@@H]1CO[C@@H]1CC[C@]2(c3ncc(F)cn3)C[C@@H]2C1` (single isomer, unassigned) [Example 136], which IC50 is on record?
The IC50 was 24.5 nM.

Which IC50 does the source give for `C[C@@H]1C[C@H](NS(C)(=O)=O)[C@H](CO[C@H]2CC[C@@]3(c4ncc(F)cn4)C[C@H]3C2)N1C(=O)OCC(F)(F)F` [Example 65, 2,2,2-trifluoroethyl (2R,3S,5R)-2-((((1S,3S,6R)-6-(5-fluoropyrimidin-2-yl)bicyclo[4.1.0]heptan-3-yl)oxy)methyl)-5-methyl-3-(methylsulfonamido)pyrrolidine-1-carboxylate] here?
The IC50 was 1.6 nM.

For `COC(=O)N1[C@H](C)C[C@H](NS(C)(=O)=O)[C@@H]1CO[C@H]1CC[C@@]2(c3nccs3)C[C@H]2C1` (single isomer, unassigned) [Example 146], which IC50 is on record?
Its IC50 is 50.7 nM.

For `COC(=O)N1[C@H](C)C[C@H](NS(=O)(=O)N(C)C)[C@@H]1COC1CCC2(c3ncc(F)cn3)CC2C1` (single isomer, unassigned) [Example 167], which IC50 is on record?
The IC50 was 575 nM.

Which IC50 does the source give for `COC(=O)N1[C@H](C)C[C@H](NS(C)(=O)=O)[C@@H]1COC1CCC2(c3ncc(F)cn3)CC2C1` (stereo partly drawn) [Example 135, methyl (2R,3S,5R)-2-(((6-(5-fluoropyrimidin-2-yl)bicyclo[4.1.0]heptan-3-yl)oxy)methyl)-5-methyl-3-(methylsulfonamido)pyrrolidine-1-carboxylate] here?
Its IC50 is 6.3 nM.

For `CC(C)OC(=O)N1[C@H](C)C[C@H](NS(C)(=O)=O)[C@@H]1CO[C@H]1CC[C@@]2(c3ncc(F)cn3)C[C@H]2C1` (single isomer, unassigned) [Example 28], which IC50 is on record?
Its IC50 is 3.4 nM.

For `COC(=O)N1[C@H](C)C[C@H](NS(C)(=O)=O)[C@@H]1COC1CCC2(c3nc4c(F)ccc(F)c4s3)CC2C1` (stereo partly drawn) [Example 71, methyl (2R,3S,5R)-2-(((6-(4,7-difluorobenzo[d]thiazol-2-yl)bicyclo[4.1.0]heptan-3-yl)oxy)methyl)-5-methyl-3-(methylsulfonamido)pyrrolidine-1-carboxylate], which IC50 is on record?
Its IC50 is 832 nM.
